Experimental data from patent publication US12690589B2, “Herbicidal compositions comprising pyroxasulfone” (BASF SE, priority 2024, dated 2026).

What was measured:
Experiment in all cases: Post-emergence application in field trials, herbicidal activity (damage scale 0 to 100%)
Assay type in all cases: in vivo
[1] = test system: Echinochloa crus-galli (ECHCG); conditions: stage 23-30, height 15-20 cm
Protocol: In the examples below, using the method of S. R. Colby (1967) “Calculating synergistic and antagonistic responses of herbicide combinations”, Weeds 15, p. 22ff., the value E, which is expected if the activity of the individual active compounds is only additive, was calculated:
[formula] • wherein • X=percent activity using active herbicide A at an application rate a; • Y=percent activity using active herbicide B (e.g. pyroxasulfone) at an application rate b; • E=expected activity (in %) by A+B at application rates a+b.
If the value found experimentally is higher than the value E calculated according to Colby, a synergistic effect is present.
On field test sites, natural weed infestation or seeded weeds were treated post-emergence of the weeds.
In the field trials, the weeds were treated as indicated below.
In the following experiments, the herbicidal activity for the individual herbicidal compositions (solo and mixture applications) was assessed at the indicated days after treatment (DAT). The assessments for the damage on undesired weeds caused by the composition was carried out using a scale from 0 to 100%, compared to the untreated control plants. Here, 0 means no damage and 100 means complete destruction of the plants.
Herbicide A-1 (50 g/l) and pyroxasulfone (85% WG) were, together with addition of 0.5% MSO (methylated seed oil) as adjuvant, formulated in water as distribution medium (water volume 200 l/ha) and sprayed with commercial flat fan nozzles.

Zea mays (ZEAMX) = test system: Zea mays (ZEAMX)
How it was run: (§1)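 Field sites with natural or seeded weeds were sprayed post-emergence via flat fan nozzles in 200 l/ha water plus 0.25 v/v % MSO adjuvant, solo or mixed with pyroxasulfone and other partners. Damage was scored 0–100% versus untreated plants at indicated DAT. Colby expected values were used to judge synergy.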

Hordeum vulgare (HORVW) = conditions: stage 23-29, height 20-25 cm
How it was run: as §1

[2] = test system: Lolium multiflorum (LOLMU); conditions: stage 22-25, height 20-25 cm
How it was run: as §1

[3] = test system: Digitaria sanguinalis (DIGSA); conditions: stage 22, height 10-15 cm
How it was run: as §1

[4] = 7 DAT, g ai/ha A-1 12.5, B 70, C-12 252
[5] = 21 DAT, g ai/ha A-1 12.5, B 70, C-12 252
[6] = 28 DAT, g ai/ha A-1 12.5, B 70, C-12 252
[7] = Table 8.2, 21 DAT, g ai/ha A-1 18, B 70, C-12 1066
[8] = 7 DAT, g ai/ha A-1 18, B 70, C-12 252
[9] = 7 DAT, g ai/ha A-1 18, B 90, C-12 252
[10] = 21 DAT, g ai/ha A-1 18, B 70, C-12 252
[11] = 21 DAT, g ai/ha A-1 18, B 90, C-12 252
[12] = 28 DAT, g ai/ha A-1 18, B 70, C-12 252
[13] = 28 DAT, g ai/ha A-1 18, B 90, C-12 252

Measured: % Herbicidal activity

CP(=O)(O)CC[C@H](N)C(=O)O.N [C-12, glufosinate-P-ammonium]
50%: [2]; [4] | [2]; [8] | [2]; [9]
60%: [1]; [5] | [1]; [6] | Zea mays (ZEAMX); 21 DAT, stage 15-16, height 27-33 cm, g ai/ha A-1 12.5, B 70, C-12 252 | Zea mays (ZEAMX); 21 DAT, stage 15-16, height 27-33 cm, g ai/ha A-1 18, B 70, C-12 252 | Zea mays (ZEAMX); 21 DAT, stage 15-16, height 27-33 cm, g ai/ha A-1 18, B 90, C-12 252
70%: [1]; [4] | Zea mays (ZEAMX); 7 DAT, stage 15-16, height 27-33 cm, g ai/ha A-1 12.5, B 70, C-12 252 | Zea mays (ZEAMX); 7 DAT, stage 15-16, height 27-33 cm, g ai/ha A-1 18, B 70, C-12 252 | Zea mays (ZEAMX); 7 DAT, stage 15-16, height 27-33 cm, g ai/ha A-1 18, B 90, C-12 252 | [3]; [8] | [3]; [9] | [3]; [10] | [3]; [11]
40%: Hordeum vulgare (HORVW); [4] | Hordeum vulgare (HORVW); [8] | Hordeum vulgare (HORVW); [9]
20%: [3]; Table 8.1, 7 DAT, g ai/ha A-1 18, B 70, C-12 1066 | [3]; [7]
10%: [1]; [7] | [1]; Table 8.2, 21 DAT, g ai/ha A-1 18, B 90, C-12 1066 | [1]; Table 8.3, 28 DAT, g ai/ha A-1 18, B 70, C-12 1066 | [1]; Table 8.3, 28 DAT, g ai/ha A-1 18, B 90, C-12 1066 | [3]; Table 8.4, 42 DAT, g ai/ha A-1 18, B 70, C-12 1066
45%: Zea mays (ZEAMX); 42 DAT, stage 15-16, height 27-33 cm, g ai/ha A-1 12.5, B 70, C-12 252 | Zea mays (ZEAMX); 42 DAT, stage 15-16, height 27-33 cm, g ai/ha A-1 18, B 70, C-12 252 | Zea mays (ZEAMX); 42 DAT, stage 15-16, height 27-33 cm, g ai/ha A-1 18, B 90, C-12 252
55%: [3]; 42 DAT, g ai/ha A-1 18, B 70, C-12 252 | [3]; 42 DAT, g ai/ha A-1 18, B 90, C-12 252
7%: Zea mays (ZEAMX); Table 8.1, 7 DAT, stage 15-16, height 50-60 cm, g ai/ha A-1 18, B 70, C-12 1066 | Zea mays (ZEAMX); Table 8.1, 7 DAT, stage 15-16, height 50-60 cm, g ai/ha A-1 18, B 90, C-12 1066
30%: Hordeum vulgare (HORVW); [5] | Hordeum vulgare (HORVW); [10] | Hordeum vulgare (HORVW); [11] | Hordeum vulgare (HORVW); [6] | Hordeum vulgare (HORVW); [12] | Hordeum vulgare (HORVW); [13] | [2]; [5] | [2]; [10] | [2]; [11] | [2]; [6] | [2]; [12] | [2]; [13]
